Series [1] concerns HeLa cervical cancer cell. Description: MTT cell growth inhibition assay, HeLa. Type of series: cell-based, human. Particulars: Homo sapiens, 48 h incubation. An excerpt: (§1) All human cell lines were used in this study. MGC-803 late-stage differentiation gastric cancer cell, A549 lung cancer cell, HepG2 hepatoma cell, AGS gastric cancer cell, BEL-7402 liver cancer cell, HCT-116 colorectal cancer cell, HeLa cervical cancer cell, SGC-7901 early differentiation gastric cancer cell, L-02 normal liver cell, MCF-7 breast cancer cell, and MCF-10A normal breast cell were initially purchased from American Type Culture Collection (ATCC, Manassas, VA, USA). RPMI-1640 media, Dulbecco’s modified Eagle’s medium (DMEM), and foetal bovine serum (FBS) were provided from Gibco Company (Grand Island, NY, USA). The cells were maintained in DMEM or RPMI-1640, supplemented with 10% FBS, 100 IU/mL penicillin and […] (Grand Island, NY, USA), and at 37 °C in a humidified atmosphere containing 5% CO2.
(§2) Cells were plated in 96-well plates at a density of 30–40% to ensure exponential growth throughout the experimental period, and then allowed to adhere for 1 day[21]. Next, the cells were treated with four serial concentrations (1, 10, 50, and 100 µM) of each compound. Taxol, CA-4, and CA-4P (phosphorylated form of CA-4) were used as positive controls. After 48 h incubation, MTT solution was added to each well at a final concentration of 2 mg/mL, and incubated for an additional 4 h. Next, the MTT solution was removed and 150 µL of dimethyl sulphoxide (DMSO)/well was added (Sigma-Aldrich, St Louis, MO, USA). The plates were shaken vigorously at RT to ensure complete solubilisation, and absorption at 492 nm was determined.
(§3) According to standard protocol, preliminary in vitro anti-proliferative activities of the synthesised compounds were evaluated by MTT assay, using nine human cancer cell lines (MGC-803, A549, HepG2, AGS, BEL-7402, HCT116, HeLa, SGC-7901, and MCF-7) and two normal human cell lines (L-02 and MCF-10A), and compared with those of CA-4, CA-4P, and taxol.

In series [2] the test system is BEL-7402 cells. Description: Trypan blue staining. Type of series: cell-based. The conditions noted are these: 0.001 µM to 10 µM, data not shown. The protocol:
Trypan blue staining was used to further investigate the cytotoxicity of 6h.

Series [3] relates to BEL-7402 cells. Description: Analysis for cell cycle by flow cytometry. Format: cell-based, human. Particulars: BEL-7402, 12 h incubation, concentration-dependent increase from-to (0.01, 0.05, 0.1 µM). On the procedure:
BEL-7402 cells were plated 6-well plates with 5.0 × 10^5 cells/well for overnight (O/N) and were synchronised at the G0 phase by serum starvation (0.1% FBS in RPMI-1640) for 24 h. Then the cells were incubated with 0.01, 0.05, 0.1 µM of 6h and 0.1 μM of taxol, respectively. Vehicle group was treated with 0.1% DMSO. Following 12 h of incubation, the cells were detached with 0.05% trypsin/5 mM EDTA and centrifuged at 1000 rpm for 10 min, and fixed in 70% ethanol at −20 °C for O/N. Then, the cells were subsequently analysed the cell cycle distribution by flow cytometry using a FACSCalibur flow cytometer with Cell Quest software (Becton-Dickinson, Franklin Lakes, NJ, USA), plotting at least 30,000 events per sample[22]. The percentage of cells in the G0/G1, S, and G2/M phases of the cell cycle were determined using the ModFit LT version 4.0 software package (Verity Software, Topsham, ME, USA).

The test system of the next series is A549 lung cancer cell. Briefly: MTT cell growth inhibition assay, A549. Format: cell-based, human.
Excerpt: as §1, §2, §3

In the next series the test system is HCT116 cells. Description: MTT cell growth inhibition assay, HCT116. Type of series: cell-based, human.
Excerpt: as §1, §2, §3

The test system of a further series is MGC-803 cells. Briefly: MTT cell growth inhibition assay, MGC-803. Format: cell-based, human. Particulars: for IC50: MTT, 48 h incubation, MGC-803.
Excerpt: as §1, §2, §3

The test system of the next series is MCF-7 breast cancer cell. Briefly: MTT cell growth inhibition assay, MCF-7. Type of series: cell-based, human.
Excerpt: as §1, §2, §3

In the next series the test system is AGS cells. Briefly: MTT cell growth inhibition assay, AGS. Format: cell-based, human.
Excerpt: as §1, §2, §3

The structures appear in SMILES notation. Where only a bound is given, the exact number is not on record here.

As for `COc1cc(/C(C#N)=C/c2ccc(C)cc2)cc(OC)c1OC` [Compound 6h, (Z)-3-(p-Tolyl)-2-(3,4,5-trimethoxyphenyl)acrylonitrile], the IC50 was over 100000 nM in series [1]; 530 ± 23 nM in the series on A549 lung cancer cell (Homo sapiens, MTT, 48 h incubation, A549); 610 ± 160 nM in the series with HCT116 cells (Homo sapiens, HCT-116, MTT, 48 h incubation, HCT116); 10 to 7210 nM in the series on MGC-803 cells (Homo sapiens, MGC-803, 48 h); under 10 nM in the series with MGC-803 cells; 2610 ± 980 nM in the series on MCF-7 breast cancer cell (Homo sapiens, MCF7, MTT, 48 h incubation, MCF-7). The compound also had an IC50 in the series with AGS cells (Homo sapiens, MTT, 48 h incubation, AGS) of 510 ± 450 nM. Further, the “percentages of dead cells (trypan blue)” value in the series with BEL-7402 cells [2] was “negligible”. The “percentage of S cell population” value in the series with BEL-7402 cells [3] was 4.44–19.35%. For the same compound, the “SI IC50 (L-02/A549)” value in the series with A549 lung cancer cell (selectivity index, IC50 (L-02)/IC50 (A549)) is over 188.6. Moreover, the “SI IC50 (L-02/HCT116)” value in the series with HCT116 cells (selectivity index, IC50 (L-02)/IC50 (HCT116)) is over 163.9. Also, the “fold more active than taxol against MGC-803 cells” value in the series with MGC-803 cells was determined as 6 fold. For the same compound, the “SI IC50 (MCF-10A/MCF-7)” value in the series with MCF-7 breast cancer cell (selectivity index, IC50 (MCF-10A)/IC50 (MCF-7)) is on record as over 3.6. For the same compound, the “SI IC50 (L-02/AGS)” value in the series on AGS cells (selectivity index, IC50 (L-02)/IC50 (AGS)) is reported as over 196.0.

The values above are taken from paper PMC6161602, “Synthesis and characterisation of (Z)-styrylbenzene derivatives as potential selective anticancer agents” (Journal of Enzyme Inhibition and Medicinal Chemistry, 2018).
